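Interpolation was linear, between the two tested concentrations surrounding the appropriate level; five concentrations were tested over 48 hours in 96-well plates. TGI is the concentration that stops growth completely.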
Columns and labels:
Experiment in all cases: NCI anticancer screen, dose series, 48 h
K-562 leukemia = system: K-562 leukemia
UACC-257 melanoma = system: UACC-257 melanoma
MALME-3M melanoma = system: MALME-3M melanoma
MOLT-4 leukemia = system: MOLT-4 leukemia
BT-549 breast = system: BT-549 breast
OVCAR-8 ovarian = system: OVCAR-8 ovarian
PC-3 prostate = system: PC-3 prostate
HOP-62 NSCLC = system: HOP-62 NSCLC
T-47D breast = system: T-47D breast
HS 578T breast = system: HS 578T breast
SNB-75 CNS = system: SNB-75 CNS
HCT-15 colon = system: HCT-15 colon
COLO 205 colon = system: COLO 205 colon
HCT-116 colon = system: HCT-116 colon
SF-268 CNS = system: SF-268 CNS
SK-OV-3 ovarian = system: SK-OV-3 ovarian
NCI-H226 lung = system: NCI-H226 lung
SN12C renal = system: SN12C renal
NCI/ADR-RES ovarian = system: NCI/ADR-RES ovarian
M14 melanoma = system: M14 melanoma
MDA-N = system: MDA-N
SK-MEL-28 melanoma = system: SK-MEL-28 melanoma
NCI-H522 lung = system: NCI-H522 lung
NCI-H460 lung = system: NCI-H460 lung
SR leukemia = system: SR leukemia
U251 CNS = system: U251 CNS
786-0 renal = system: 786-0 renal
IGROV1 ovarian = system: IGROV1 ovarian
HOP-92 NSCLC = system: HOP-92 NSCLC
A549 NSCLC = system: A549 NSCLC
CCRF-CEM leukemia = system: CCRF-CEM leukemia
NCI-H23 lung = system: NCI-H23 lung
UACC-62 melanoma = system: UACC-62 melanoma
SF-295 CNS = system: SF-295 CNS
MCF7 breast = system: MCF7 breast
TK-10 renal = system: TK-10 renal
OVCAR-4 ovarian = system: OVCAR-4 ovarian
KM12 colon = system: KM12 colon
CAKI-1 renal = system: CAKI-1 renal
RPMI-8226 leukemia = system: RPMI-8226 leukemia
OVCAR-3 ovarian = system: OVCAR-3 ovarian
SK-MEL-2 melanoma = system: SK-MEL-2 melanoma
EKVX NSCLC = system: EKVX NSCLC
LOX IMVI melanoma = system: LOX IMVI melanoma
SNB-19 CNS = system: SNB-19 CNS
HT29 colon = system: HT29 colon
SK-MEL-5 melanoma = system: SK-MEL-5 melanoma
HL-60(TB) leukemia = system: HL-60(TB) leukemia
UO-31 renal = system: UO-31 renal
DU-145 prostate = system: DU-145 prostate
ACHN renal = system: ACHN renal
HCC-2998 colon = system: HCC-2998 colon
MDA-MB-231 breast = system: MDA-MB-231 breast
SW-620 colon = system: SW-620 colon
OVCAR-5 ovarian = system: OVCAR-5 ovarian
A498 renal = system: A498 renal
MDA-MB-435 = system: MDA-MB-435

## Cc1ccc(S(=O)(=O)N/N=C2/C3C(CC2(C)C)C2(C)CCCC3(C)C2O)cc1 (stereo not given)
K-562 leukemia
  TGI: > 100 µM
UACC-257 melanoma
  TGI: 33.3 µM
MALME-3M melanoma
  TGI: 45.4 µM
MOLT-4 leukemia
  TGI: 57.6 µM
BT-549 breast
  TGI: 31 µM
OVCAR-8 ovarian
  TGI: > 100 µM
PC-3 prostate
  TGI: 29.7 µM
HOP-62 NSCLC
  TGI: > 100 µM
T-47D breast
  TGI: 54.5 µM
HS 578T breast
  TGI: 55.6 µM
SNB-75 CNS
  TGI: 39.3 µM
HCT-15 colon
  TGI: 60 µM
COLO 205 colon
  TGI: 31.8 µM
HCT-116 colon
  TGI: 33.9 µM
SF-268 CNS
  TGI: > 100 µM
SK-OV-3 ovarian
  TGI: 44.8 µM
NCI-H226 lung
  TGI: 35.3 µM
SN12C renal
  TGI: 36.5 µM
NCI/ADR-RES ovarian
  TGI: 94.6 µM
M14 melanoma
  TGI: 56.3 µM
MDA-N
  TGI: 37.9 µM
SK-MEL-28 melanoma
  TGI: 40.4 µM
NCI-H522 lung
  TGI: 44.5 µM
NCI-H460 lung
  TGI: 37.7 µM
SR leukemia
  TGI: > 100 µM
U251 CNS
  TGI: 32.1 µM
786-0 renal
  TGI: 45.3 µM
IGROV1 ovarian
  TGI: 69.8 µM
HOP-92 NSCLC
  TGI: 33.3 µM
A549 NSCLC
  TGI: 63.7 µM
CCRF-CEM leukemia
  TGI: 59.4 µM
NCI-H23 lung
  TGI: 42.8 µM
UACC-62 melanoma
  TGI: 30 µM
SF-295 CNS
  TGI: 29.6 µM
MCF7 breast
  TGI: 43.2 µM
TK-10 renal
  TGI: > 100 µM
OVCAR-4 ovarian
  TGI: 43.3 µM
KM12 colon
  TGI: 35.1 µM
CAKI-1 renal
  TGI: > 100 µM
RPMI-8226 leukemia
  TGI: > 100 µM
OVCAR-3 ovarian
  TGI: > 100 µM
SK-MEL-2 melanoma
  TGI: 45.8 µM
EKVX NSCLC
  TGI: > 100 µM
LOX IMVI melanoma
  TGI: 27.4 µM
SNB-19 CNS
  TGI: 96.5 µM
HT29 colon
  TGI: 39.6 µM
SK-MEL-5 melanoma
  TGI: 28.8 µM
HL-60(TB) leukemia
  TGI: > 100 µM
UO-31 renal
  TGI: > 100 µM
DU-145 prostate
  TGI: > 100 µM

## COc1cc(CCC(=O)O)c2cc3ccccc3cc2c1O
K-562 leukemia
  TGI: 42.4 µM
UACC-257 melanoma
  TGI: 31 µM
MALME-3M melanoma
  TGI: 32.3 µM
MOLT-4 leukemia
  TGI: 21.9 µM
BT-549 breast
  TGI: 30.9 µM
OVCAR-8 ovarian
  TGI: 30.6 µM
PC-3 prostate
  TGI: 47.6 µM
HOP-62 NSCLC
  TGI: 32.7 µM
T-47D breast
  TGI: 36.3 µM
HS 578T breast
  TGI: > 100 µM
HCT-15 colon
  TGI: 43.9 µM
COLO 205 colon
  TGI: 36.2 µM
ACHN renal
  TGI: 32.2 µM
HCT-116 colon
  TGI: 31 µM
SF-268 CNS
  TGI: 38.1 µM
SK-OV-3 ovarian
  TGI: > 100 µM
NCI-H226 lung
  TGI: 78 µM
SN12C renal
  TGI: 31.7 µM
NCI/ADR-RES ovarian
  TGI: 80.7 µM
HCC-2998 colon
  TGI: 65.2 µM
M14 melanoma
  TGI: 42.6 µM
MDA-N
  TGI: 32.5 µM
SK-MEL-28 melanoma
  TGI: 48.4 µM
NCI-H522 lung
  TGI: 45.1 µM
NCI-H460 lung
  TGI: 47.2 µM
SR leukemia
  TGI: 33.1 µM
U251 CNS
  TGI: 29.9 µM
MDA-MB-231 breast
  TGI: 41.4 µM
786-0 renal
  TGI: 30.4 µM
IGROV1 ovarian
  TGI: 41.1 µM
HOP-92 NSCLC
  TGI: 88.3 µM
A549 NSCLC
  TGI: 52.6 µM
CCRF-CEM leukemia
  TGI: 13.8 µM
NCI-H23 lung
  TGI: 51.6 µM
UACC-62 melanoma
  TGI: 37.7 µM
SF-295 CNS
  TGI: 37.6 µM
SW-620 colon
  TGI: 51.5 µM
MCF7 breast
  TGI: 34.4 µM
TK-10 renal
  TGI: 75.1 µM
OVCAR-4 ovarian
  TGI: 29.7 µM
KM12 colon
  TGI: 44.1 µM
CAKI-1 renal
  TGI: 33.8 µM
RPMI-8226 leukemia
  TGI: 26.4 µM
OVCAR-5 ovarian
  TGI: 45.9 µM
OVCAR-3 ovarian
  TGI: 51.7 µM
SK-MEL-2 melanoma
  TGI: 36.6 µM
A498 renal
  TGI: 99.5 µM
EKVX NSCLC
  TGI: 53.1 µM
LOX IMVI melanoma
  TGI: 53.5 µM
MDA-MB-435
  TGI: 34.4 µM
SNB-19 CNS
  TGI: 60.5 µM
HT29 colon
  TGI: 43.8 µM
SK-MEL-5 melanoma
  TGI: 28.4 µM
HL-60(TB) leukemia
  TGI: 39.1 µM
UO-31 renal
  TGI: 35.7 µM

— PubChem BioAssay (NCI)
